What was measured:
H1703 = assay: CellTiter 96 MTT cell proliferation assay (Example 9); type: cell-based, human
Protocol: (§1) Cell lines derived from human non-small cell lung cancers are obtained from American Type Culture Collection (ATCC, Manassas, Va.), and are designated by their NCI numbers. Cells are maintained in RPMI 1640 medium (Gibco, Invitrogen, Carlsbad, Calif.), supplemented with 10% fetal calf serum (Gemini Bio-Products, Sacramento, Calif.), 100 U/mL penicillin/streptomycin, and 2 mM glutamine at 37° C. and 5% CO2.
(§2) For proliferation assays cells are seeded at 2×10^4/well in 96-well plates, allowed to adhere for 24 hrs, and then are treated with the drug or DMSO as a control for 48 hours. […] Compounds are prepared as 10 mM stock solution in dimethyl sulfoxide (Sigma, St. Louis, Mo.). Increasing drug concentrations in 10 μL of phosphate-buffered saline (PBS) are added to 100 μL of the culture medium and incubated at 37° C. for 72 h. The CellTiter 96 non-radioactive cell proliferation assay (MTT assay, Promega, Madison, Wis.), is performed according to the manufacturer's protocol. Each compound concentration is represented in six repeats, and the screening is performed as at least two independent experiments. IC50 values are calculated using Sigma Plot software (Systat Software).

H1944 = assay: as above; type: cell-based, human
Protocol: as §1, §2

H2122 = assay: as above; type: cell-based, human
Protocol: as §1, §2

H441 = assay: as above; type: cell-based, human
Protocol: as §1, §2

H1373 = assay: as above; type: cell-based, human
Protocol: as §1, §2

H1703 cells = assay: H1703 xenograft in athymic NCr-nu/nu mice, tumor weights (Example 10); type: in vivo; conditions: 8 micromols/kg i.v., three times a week for three weeks
Protocol: H1703 cells are harvested at 80% confluence, washed with PBS, and suspended in PBS. The cells are injected at 5×10^6 s.c. into a flank of 7-week-old female athymic NCr-nu/nu mice (Charles River). […] Animals are treated three times a week for three weeks with i.v. tail vein injections of either vehicle (2.25% P-123 in PBS) or 1 or 2 (6 micromols/kg in the vehicle) or 6 (8 micromols/kg). Body weights are taken before each drug injection. Animals are sacrificed two hours after the last drug injection and the tumors are excised and weighed. There are 13-15 mice/group at termination. The non-parametric Mann-Whitney test is utilized for statistical comparisons of tumor weights.

[1] = Rate of reaction with 4 mM glutathione (stability study, HPLC); type: physicochemical; conditions: for t½ (min) Mean (SE): 4 mM glutathione (GSH), aqueous pH 7.4 phosphate buffered saline, 37° C.; for half-life upon treatment with glutathione (GSH): in comparison with that of JS-K
Protocol: 490 μL of 2.25% Pluronic P123 in PBS is aliquoted into glass HPLC vials and maintained at 50° C. To this solution, 10 μL of 50 mM of compounds 6, 7, 9, and 11 in DMSO is added and maintained at 50° C. for 10 min. A glutathione stock solution (40 mM) is prepared in 0.1 M phosphate buffer pH 7.4. To 800 μL of 0.1 M phosphate buffer in a glass HPLC vial, 100 μL of glutathione stock solution and 100 μL of formulated prodrug are added. The disappearance of the compound is monitored using an Agilent 1100 series HPLC fitted with a C-18 reverse phase column (Phenomenex Luna 250×4.60 mm) operating at 300 nm and run isocratically with acetonitrile:water (75:25).

[2] = system: lung adenocarcinoma cells (cell line H441); assay: Proliferation of lung adenocarcinoma cells, JS-59-4 with olaparib (FIG. 2); type: cell-based, human; conditions: combination with the PARP inhibitor olaparib, in comparison to JS-59-4 alone
Protocol: FIG. 2 is a bar graph showing a synergistic effect of the administration of JS-59-4 with the PARP inhibitor olaparib in the inhibition of proliferation of lung adenocarcinoma cells (cell line H441). The white bar represents the control (i.e., no treatment). The light gray bar represents the administration of JS-59-4 alone (0.75 μM). The dark gray bar represents the administration of JS-59-4 alone (1 μM). The diagonally hatched bar represents the administration of olaparib alone (5 μM). The cross hatched bar represents the administration of olaparib alone (10 μM). The light gray diagonally gray bar represents the co-administration of JS-59-4 (0.75 μM) and olaparib (5 μM). The dark gray diagonally hatched bar represents the co-administration of JS-59-4 (1 μM) and olaparib (5 μM). The light gray cross hatched gray bar represents the co-administration of JS-59-4 (0.75 μM) and olaparib (10 μM). The dark gray cross hatched bar represents the co-administration of JS-59-4 (1 μM) and olaparib (10 μM).

SAPK/JNK and p38 = assay: Tiron pre-treatment before JS-36-25, stress kinase phosphorylation; type: cell-based, human; conditions: 10 mM Tiron 1 hour, then 30 minutes 1 μM JS-36-25
Protocol: Immunoblotting: For protein immunoblotting the cells are harvested in lysis buffer (25 mM Hepes buffer containing 150 mM NaCl, 10 mM MgCl2, 1% Nonidet P40, 0.25% sodium deoxycholate, 10% glycerol, 2.5 mM EDTA, supplemented with Complete proteinase inhibitors cocktail (Behringer). Cell extracts are resolved by SDS-polyacrylamide gel electrophoresis (4-12% Bis-Tris gels or 3-8% Tris-acetate gels, Invitrogen Life Technologies, Carlsbad, Calif.) then immunoblotted to PVDF membrane (Invitrogen). Antibodies to phospho-ATM, Phospho-ATR, cleaved caspases 3 and 7, phospho-SAPK/JNK and SAPK/JNK, phospho-ATF2, phospho-p38 and p38, phospho-c-jun and c-jun, and PARP are purchased from Cell Signaling Technology (Danvers, Mass.). Anti-ATF3 polyclonal antibodies are from Santa Cruz Biotechnology (Santa Cruz, Calif.). […] The cells are pre-treated for 1 hour with 10 mM Tiron, followed by 30 minutes incubation with 1 μM of JS-36-25. In the Tiron-treated cells phosphorylation of both SAPK/JNK and p38 by JS-36-25 is diminished in comparison with JS-36-25-only treated cells (FIG. 3C).

H1703 cell line = assay: Tiron protection against JS-K toxicity; type: cell-based, human

For `CCOC(=O)N1CCN(/[N+]([O-])=N/Oc2cc(C)c([N+](=O)[O-])cc2[N+](=O)[O-])CC1` [Compound 6, O^2-(2,4-dinitrophenyl-5-methyl) 1-[(4-ethoxycarbonyl)piperazin-1-yl]diazen-1-ium-1,2-diolate], the IC50 (H1703) was 0.97 µM, the IC50 (H1944) was > 10 µM and the IC50 (H2122) was 7 µM. The IC50 (H441) was 1.61 µM, the IC50 (H1373) was 1.86 µM and the “H1703 tumor growth in vivo” value (H1703 cells) was “did not result in reduction”. The “t½ (min) Mean (SE)” value [1] was 71.5 (4.3) min.
With `CCOC(=O)N1CCN(/[N+]([O-])=N/Oc2ccc([N+](=O)[O-])cc2C#N)CC1` [JS-59-4] the “antiproliferative activity of the combination” value [2] was “significantly enhanced antiproliferative activity” and the “half-life upon treatment with glutathione (GSH)” value [1] was “prolonged half-life”.
With `CCOC(=O)N1CCN(/[N+]([O-])=N/Oc2ccc(C#N)cc2[N+](=O)[O-])CC1` [JS-59-131] the “half-life upon treatment with glutathione (GSH)” value [1] was “prolonged half-life”.
With `O=S(=O)(O)c1cc(O)c(O)c(S(=O)(=O)O)c1` [Tiron] the “SAPK/JNK and p38 phosphorylation by JS-36-25” value (SAPK/JNK and p38) was “significantly reduces” and the “effect on JS-K toxicity” value (H1703 cell line) was “protective effect”.
For `CCOC(=O)N1CCCN(/[N+]([O-])=N/Oc2cc(C)c([N+](=O)[O-])cc2[N+](=O)[O-])CC1` [Compound 7, O^2-(2,4-dinitrophenyl-5-methyl) 1-[(4-ethoxycarbonyl)homopiperazin-1-yl]diazen-1-ium-1,2-diolate], the IC50 (H1703) was 1.66 µM, the IC50 (H1944) was > 10 µM and the IC50 (H2122) was 10 µM. The IC50 (H441) was 2.02 µM, the IC50 (H1373) was 3 µM and the “t½ (min) Mean (SE)” value [1] was 25.7 (1.0) min.
In the case of `CCOC(=O)N1CCN(/[N+]([O-])=N/Oc2cc(OC)c([N+](=O)[O-])cc2[N+](=O)[O-])CC1` [Compound 9, O^2-(2,4-dinitrophenyl-5-methoxy) 1-[(4-ethoxycarbonyl)piperazin-1-yl]diazen-1-ium-1,2-diolate], the IC50 (H1703) is reported as 1.57 µM, the IC50 (H1944) is reported as > 10 µM and the IC50 (H2122) is reported as 5.78 µM. The IC50 (H441) was 2.5 µM, the IC50 (H1373) was 2.1 µM and the “t½ (min) Mean (SE)” value [1] was 38.6 (2.8) min.
For `CCOC(=O)N1CCCN(/[N+]([O-])=N/Oc2cc(OC)c([N+](=O)[O-])cc2[N+](=O)[O-])CC1` [Compound 11, O^2-(2,4-dinitrophenyl-5-methoxy) 1-[(4-ethoxycarbonyl)homopiperazin-1-yl]diazen-1-ium-1,2-diolate], the IC50 (H1703) was 1.82 µM, the IC50 (H1944) was > 10 µM and the IC50 (H2122) was 10 µM. For the same compound, the IC50 (H441) was 3.15 µM, the IC50 (H1373) was 3.08 µM and the “t½ (min) Mean (SE)” value [1] was 59.6 (4.2) min.

From patent US9205091B2, “Diazeniumdiolated compounds, pharmaceutical compositions, and method of treating cancer” (The United States of America, as represented by the …, priority 2009, dated 2015)
